Consider 12 substances from publication PMC2889824, “Structural Optimization and De Novo Design of Dengue Virus Entry Inhibitory Peptides” (PLoS Neglected Tropical Diseases, 2010).

For data set [1], the system named is DENV-2 strain NG-C. To be noted: cited from earlier work; for DENV inhibitory activity of wild type mimic peptides (in words): previous work; for IC50: previously tested wild type peptides denoted with an asterisk, read-out: IC50 (did not achieve 50% inhibition), previously tested wild type peptides. An excerpt: Table 1 Sequences and IC50 values of peptides. | column: IC50 (µM) || We had previously identified several E protein regions where peptides mimicking the E protein sequence might function as inhibitors. […] These included a peptide derived from the domain II fusion sequence (DN80, corresponding to amino acids 96–114 in the DENV-2 E protein) and two overlapping peptides derived from the domain II hinge region (DN57 and DN81, corresponding to amino acids 205–223 and 205–232, respectively). Predictions from crystal structures, [14], [15], as well as the previously confir ...

In data set [2] the test system is DENV-2 strain NG-C. The format is cell-based, dengue virus-2 (DENV-2). To be noted: for maximum inhibition: 24 h; for inhibition of DENV-2 infection (in words): DENV-2 NG-C, any concentration tested. On the procedure:
LLC-MK2 target cells were seeded at a density of 1×10^5 cells in each well of a 6-well plate 24 h prior to infection. Approximately 200 focus forming units (FFU) of virus were incubated with or without peptide in serum-free DMEM for 1 h at rt. Virus/peptide or virus/control mixtures were allowed to infect confluent target cell monolayers for 1 h at 37°C, with rocking every 15 m, after which time the medium was aspirated and overlaid with fresh DMEM/10% (v/v) FBS containing 0.85% (w/v) Sea-Plaque Agarose (Cambrex Bio Science, Rockland, ME) without rinsing. Cells with agar overlays were incubated at 4°C for 20 m to set the agar. Infected cells were then incubated at 37°C with 5% CO2 for 5 days. Infected cultures were fixed with 10% formalin overnight at 4°C, permeablized with 70% (v/v) ethanol for 20 m, and rinsed with phosphate buffered saline, pH 7.4 (PBS) prior to immunostaining. Virus foci were detected using a specific mouse mAb from hybridoma E60 (obtained from M. Diamond at Washington University), followed by horseradish peroxidase-conjugated goat anti-mouse immunoglobulin (Pierce, Rockford, IL), and developed using AEC chromogen substrate (Dako, Carpinteria, CA). Results are expressed as the average of at least two independent trials with three replicates each. IC50 values were determined using variable slope sigmoidal dose-response curve fits with GraphPad Prism 4.0 software (LaJolla, CA), except for DN81opt, which was determined graphically due to a lack of data points to produce a reasonable curve fit.

Data set [3] deals with LLC-MK2 cells. The format is cell-based, Macaca mulatta. On the procedure:
Cytotoxicity of peptides was measured by monitoring mitochondrial reductase activity using the TACS™ MTT cell proliferation assay (R&D Systems, Inc., Minneapolis, MN) according to the manufacturer's instructions. Dilutions of peptides in serum-free DMEM were added to confluent monolayers of LLC-MK2 cells in 96-well plates for 1 h at 37°C, similar to the focus forming inhibition assays, and incubated at 37°C with 5% (v/v) CO2 for 24 h. Absorbance at 560 nm was measured using a Tecan GeniosPro plate reader (Tecan US, Durham, NC).

Data set [4] addresses T1, purified, recombinant, 80% truncated DENV-2 S1 E protein (Dengue virus type 2, UniProt P12823).
T1 construct: Purified, recombinant, 80% truncated DENV-2 S1 E protein was obtained from Hawaii Biotechnology; purchased Hawaii Biotechnology (Honolulu, HI)
Put plainly: biochemical. Type of data set: binding, DENV-2 strain S1. The conditions noted are these: for kon: read-out: association rate constant ka; for koff: read-out: dissociation rate constant kd. On the procedure: Real time binding assays between peptides and purified DENV-2 S1 E protein were performed using biolayer interferometry on an Octet QK system (Fortebio, Menlo Park, CA). This system monitors interference of light reflected from the surface of a fiber optic sensor to measure the thickness of molecules bound to the sensor surface. Purified, recombinant, 80% truncated DENV-2 S1 E protein was obtained from Hawaii Biotechnology (Honolulu, HI). Peptides were N-terminally biotinylated with a 5∶1 molar ratio of NHS-LC-LC-Biotin (Pierce/ThermoFisher, Rockford, IL) in PBS pH 6.5 at 4°C. Excess biotinylation reagent was removed using Pepclean C-18 spin columns (Pierce/ThermoFisher, Rockford, IL). Biotinylated peptides were coupled to kinetics grade streptavidin high binding biosensors (Fortebio, Menlo Park, CA) at several different concentrations. Sensors coated with peptides were allowed to bind to E protein in PBS with 0.02% (v/v) Tween-20 and 1 mg/ml BSA at several different E protein concentrations. Binding kinetics were calculated using the Octet QK software package, which fit the observed binding curves to a 1∶1 binding model to calculate the association rate constants. E protein was allowed to dissociate by incubation of the sensors in PBS. Dissociation curves were fit to a 1∶1 model to calculate the dissociation rate constants. Binding affinities were calculated as the kinetic dissociation rate constant divided by the kinetic association rate constant.

Data set [5] has as its system DENV-2 binding to LLC-MK2 cells. Kind of data set: Virus:cell binding inhibition assay (qRT-PCR). The format is cell-based, dengue virus-2 (DENV-2). To be noted: virus pre-incubated 1 h 4°C, bound to LLC-MK2 2 h 4°C, washed, compared to control virus without peptide. On the procedure:
Binding inhibition assays were modified from Thaisomboonsuk, et al.}. Briefly, LLC-MK2 monolayers were rinsed in 4°C DMEM containing 0.8% BSA and 25 mM HEPES, pH 7.5. Virus was incubated at 4°C with peptides, control anti-dengue serum, or heparan sulfate in DMEM/BSA/HEPES for one hour before adding to the monolayers for 2 hours at 4°C. Monolayers were rinsed 3 times with cold DMEM/BSA/HEPES media prior to RNA extraction using the Qiagen RNeasy mini kit (Valencia, CA) per manufacturers instructions. Quantitative, real time, reverse transcriptase polymerase chain reaction (qRT-PCR) was conducted utilizing the Roche Lightcycler RNA Master SYBR Green 1 qRT-PCR kit (Basel, Switzerland), using primers Den_F (TTAGAGGAGACCCCTCCC) and Den_R ([…]) from Chutinimitkul et al.}. and the following cycling conditions: 1 h at 61°C, 30 s at 95°C, followed by 45 cycles of: 5 s at 95°C, 20 s at 61°C, and 30 s at 72°C. Cp values were used to estimate infectious units according to a standard curve. Independent assays were repeated three times, in duplicate or triplicate.

[6] abbreviates: FFU reduction, DENV-2 NG-C on LLC-MK2 cells, dashed line = tested, 50% inhibition not achieved, read-out: IC50 (did not achieve 50% inhibition).
[7] abbreviates: MTT, confluent LLC-MK2, 24 h post-exposure, any concentration tested, one-way ANOVA, P>0.05.

As a reminder, the IC50 is the midpoint of a concentration-inhibition curve. By Kd is commonly meant the concentration at which binding is half-saturated.

Read-outs that look alike come from different tables or passages of the source. Where no end group is shown, it is not given here.

On to “AWLVHRQWFLDLPLPWLPG [DN81wt, previously tested wild type peptide from the domain II hinge region]”, for which, in data set [1], the “DENV inhibitory activity of wild type mimic peptides (in words)” value was “did not show substantial DENV inhibitory activity” and the IC50 is over 50 µM.
With “AWLVHTQWFLDLPLPWLPGADTQGSNWI [DN57wt, previously tested wild type peptide from the DENV-2 E domain II hinge region]”, in data set [1], the “DENV inhibitory activity of wild type mimic peptides (in words)” value is reported as “did not show substantial DENV inhibitory activity” and the half-inhibitory concentration (IC50) is over 50 µM.
Take “EWSKHREGRWHTALTGATEI [1OAN3, de novo designed peptide, E protein region 251–270]”: the IC50 in data set [2] (setting [6]) was over 50 µM.
As for FWFTLIKTQAKQPARYRRFC [1OAN1], the cellular toxicity result in data set [3] (setting [7]) is “not toxic at any concentration tested”. The concentration for half-maximal inhibition (IC50) in data set [2] (-2 strain NG-C, 1 h) was 7 ± 4 µM. In addition, the maximum inhibition in data set [2] (-2 strain NG-C, 50 µM) worked out at 99%. Also, in data set [4], the Kd was 0.45 µM, the kon was determined as 3900 M⁻¹ s⁻¹ and the koff was determined as 0.0016 s⁻¹.
Consider MVIVQHQWMQIMRWPWQPE [DN80opt], for which the half-inhibitory concentration (IC50) in data set [2] (setting [6]) was over 50 µM.
As to “QQCFRFPALRKKATYTRFWI [1OAN1-scram, scrambled version of 1OAN1 of identical composition]”, the cellular toxicity entry in data set [3] (setting [7]) is “not toxic at any concentration tested”. Also, the IC50 in data set [2] (setting [6]) is over 50 µM. The “inhibition of DENV-2 infection (in words)” value in data set [2] (FFU reduction) is listed as “did not inhibit infection by DENV-2 at any concentration tested”.
In data set [2] (-2 strain NG-C, 1 h), RQMRAWGQDYQHGGMGYSC [DN81opt] returned an IC50 of 36 ± 6 µM. The same substance returned a maximum inhibition in data set [2] (-2 strain NG-C, 50 µM) of 57%.
With RWMVWRHWFHRLRLPYNPGKNKQNQQWP [DN57opt], in data set [3], the cellular toxicity result was “mildly toxic”. In data set [2] (-2 strain NG-C, 1 h), this substance displayed an IC50 of 8 ± 1 µM. This substance also gave a maximum inhibition in data set [2] (-2 strain NG-C, 20 µM) of 97%. For the same substance, in data set [4], the dissociation constant Kd stood at 1.2 µM, the kon came out at 800 M⁻¹ s⁻¹ and the koff was 0.00077 s⁻¹.
As for “RWRHLKKMQRLQPRNPNWPGQFWVHYNW [DN57opt-scram, scrambled version of DN57opt of identical composition]”, the cellular toxicity result in data set [3] (setting [7]) is on record as “not toxic at any concentration tested”. For the same substance, the half-inhibitory concentration (IC50) in data set [2] (setting [6]) was over 50 µM. In addition, the “inhibition of DENV-2 infection (in words)” value in data set [2] (FFU reduction) was “did not display inhibition at any concentration tested”.
“WHTVEPIVTEKDRPVNYEWE [1OAN4, de novo designed peptide, E protein region 351–370]”: in data set [2] (setting [6]), the IC50 was over 50 µM.
Turning to “YPENLEYRVYITPHPGEEHH [1OAN2, de novo designed peptide, E protein region 131–150]”, the IC50 in data set [2] (setting [6]) was over 50 µM.
For heparan sulfate, the “virus:cell binding” value in data set [5] is “reduced cell binding”.
